Results reported in PubChem BioAssay AID1259407 (Chemical Carcinogenesis Research Information System (CCRIS), 2018).
Calls of active or inactive are those of the source. No rule for the calls is given here.

Test system: CCRIS mutagenicity, Ames/micronucleus/aberration tests
Experiment: CCRIS mutagenicity studies
[1] = Test System: AMES SALMONELLA TYPHIMURIUM, Strain/Indicator: TA98, Metabolic Activation: NONE, Method: STANDARD PLATE
[2] = Test System: AMES SALMONELLA TYPHIMURIUM, Strain/Indicator: TA100, Metabolic Activation: NONE, Method: STANDARD PLATE
[3] = Test System: AMES SALMONELLA TYPHIMURIUM, Strain/Indicator: TA1535, Metabolic Activation: NONE, Method: STANDARD PLATE
[4] = Test System: AMES SALMONELLA TYPHIMURIUM, Strain/Indicator: TA1537, Metabolic Activation: NONE, Method: STANDARD PLATE
[5] = Test System: AMES SALMONELLA TYPHIMURIUM, Strain/Indicator: TA1538, Metabolic Activation: NONE, Method: STANDARD PLATE

## OCl
End Point: IN VIVO MICRONUCLEUS, Test System: BONE MARROW POLYCHROMATIC ERYTHROCYTES, Species: MOUSE, Strain/Sex: DDY/MALE, Route: IP
  mutagenic call: inactive; negative
Test System: AMES SALMONELLA TYPHIMURIUM, Strain/Indicator: TA97, Metabolic Activation: NONE, Method: PREINCUBATION
  mutagenic call: inactive; negative
Test System: AMES SALMONELLA TYPHIMURIUM, Strain/Indicator: TA97, Metabolic Activation: RAT, LIVER, S-9, AROCLOR 1254, Method: PREINCUBATION
  mutagenic call: inactive; negative
Test System: AMES SALMONELLA TYPHIMURIUM, Strain/Indicator: TA98, Metabolic Activation: NONE, Method: FLUCTUATION TEST
  mutagenic call: inactive; negative
[1]
  mutagenic call: inactive; negative
Test System: AMES SALMONELLA TYPHIMURIUM, Strain/Indicator: TA98, Metabolic Activation: RAT, LIVER, S-9, AROCLOR 1254, Method: STANDARD PLATE
  mutagenic call: inactive; negative
Test System: AMES SALMONELLA TYPHIMURIUM, Strain/Indicator: TA100, Metabolic Activation: NONE, Method: FLUCTUATION TEST
  mutagenic call: inactive; negative
[2]
  mutagenic call: inactive; negative
Test System: AMES SALMONELLA TYPHIMURIUM, Strain/Indicator: TA100, Metabolic Activation: RAT, LIVER, S-9, AROCLOR 1254, Method: STANDARD PLATE
  mutagenic call: inactive; negative
Test System: AMES SALMONELLA TYPHIMURIUM, Strain/Indicator: TA102, Metabolic Activation: NONE, Method: FLUCTUATION TEST
  mutagenic call: inactive; negative
Test System: AMES SALMONELLA TYPHIMURIUM, Strain/Indicator: TA102, Metabolic Activation: NONE, Method: PREINCUBATION
  mutagenic call: inactive; negative
Test System: AMES SALMONELLA TYPHIMURIUM, Strain/Indicator: TA102, Metabolic Activation: RAT, LIVER, S-9, AROCLOR 1254, Method: PREINCUBATION
  mutagenic call: inactive; negative
[3]
  mutagenic call: inactive; negative
Test System: AMES SALMONELLA TYPHIMURIUM, Strain/Indicator: TA1535, Metabolic Activation: RAT, LIVER, S-9, AROCLOR 1254, Method: STANDARD PLATE
  mutagenic call: inactive; negative
[4]
  mutagenic call: inactive; negative
Test System: AMES SALMONELLA TYPHIMURIUM, Strain/Indicator: TA1537, Metabolic Activation: RAT, LIVER, S-9, AROCLOR 1254, Method: STANDARD PLATE
  mutagenic call: inactive; negative
[5]
  mutagenic call: inactive; negative
Test System: AMES SALMONELLA TYPHIMURIUM, Strain/Indicator: TA1538, Metabolic Activation: RAT, LIVER, S-9, AROCLOR 1254, Method: STANDARD PLATE
  mutagenic call: inactive; negative
Test System: CHINESE HAMSTER OVARY, Strain/Indicator: CHO-K1-BH4 (HGPRT), Metabolic Activation: NONE, Method: STANDARD PLATE
  mutagenic call: inactive; negative
Test System: UDS RODENT HEPATOCYTES, Strain/Indicator: THY INCORP (NON-S-PHASE), Metabolic Activation: NONE, Method: LIQUID SCINTILLATION COUNTING
  mutagenic call: inactive; negative

## c1ccc2c(c1)cc1cccc3c4cccc5cccc(c54)c2c13
Test System: HUMAN H1A1V2 CELLS, Strain/Indicator: TK LOCUS, Metabolic Activation: NONE, Method: SUSPENSION/PLATE
  mutagenic call: active; positive

## Cc1ccc2ccc3ccc(C)cc3c2c1
Test System: AMES SALMONELLA TYPHIMURIUM, Strain/Indicator: TA97, Metabolic Activation: NONE, Method: STANDARD PLATE
  mutagenic call: inactive; negative
Test System: AMES SALMONELLA TYPHIMURIUM, Strain/Indicator: TA97, Metabolic Activation: RAT, LIVER, S-9, PCB, Method: STANDARD PLATE
  mutagenic call: inactive; negative
[1]
  mutagenic call: inactive; negative
Test System: AMES SALMONELLA TYPHIMURIUM, Strain/Indicator: TA98, Metabolic Activation: RAT, LIVER, S-9, PCB, Method: STANDARD PLATE
  mutagenic call: active; positive
[2]
  mutagenic call: inactive; negative
Test System: AMES SALMONELLA TYPHIMURIUM, Strain/Indicator: TA100, Metabolic Activation: RAT, LIVER, S-9, PCB, Method: STANDARD PLATE
  mutagenic call: inactive; negative

## CC(C)CCC[C@@H](C)[C@H]1CC[C@H]2[C@@H]3CC4([C@H]5C[C@@H](Br)CC[C@]5(C)[C@H]3CC[C@]12C)S(=O)(=O)CCS4(=O)=O
Test System: AMES SALMONELLA TYPHIMURIUM, Strain/Indicator: TA97A, Metabolic Activation: NONE
  mutagenic call: inactive; negative
Test System: AMES SALMONELLA TYPHIMURIUM, Strain/Indicator: TA97A, Metabolic Activation: RAT, LIVER, S-9, AROCLOR 1254
  mutagenic call: active; positive
Test System: AMES SALMONELLA TYPHIMURIUM, Strain/Indicator: TA98, Metabolic Activation: NONE
  mutagenic call: inactive; negative
Test System: AMES SALMONELLA TYPHIMURIUM, Strain/Indicator: TA100, Metabolic Activation: NONE
  mutagenic call: inactive; negative
Test System: AMES SALMONELLA TYPHIMURIUM, Strain/Indicator: TA100, Metabolic Activation: RAT, LIVER, S-9, AROCLOR 1254
  mutagenic call: inactive; negative
Test System: AMES SALMONELLA TYPHIMURIUM, Strain/Indicator: TA102, Metabolic Activation: NONE
  mutagenic call: active; positive
Test System: AMES SALMONELLA TYPHIMURIUM, Strain/Indicator: TA102, Metabolic Activation: RAT, LIVER, S-9, AROCLOR 1254
  mutagenic call: active; positive
Test System: AMES SALMONELLA TYPHIMURIUM, Strain/Indicator: TA104, Metabolic Activation: NONE
  mutagenic call: active; positive
Test System: AMES SALMONELLA TYPHIMURIUM, Strain/Indicator: TA104, Metabolic Activation: RAT, LIVER, S-9, AROCLOR 1254
  mutagenic call: active; positive

## O[C@H]1C=Cc2ncccc2[C@@H]1O
[2]
  mutagenic call: inactive; negative
Test System: AMES SALMONELLA TYPHIMURIUM, Strain/Indicator: TA100, Metabolic Activation: RAT, LIVER, S-9, AROCLOR 1254 (10 OR 20%), Method: STANDARD PLATE
  mutagenic call: inactive; negative

## CC(=O)NO
[1]
  mutagenic call: active; positive
Test System: AMES SALMONELLA TYPHIMURIUM, Strain/Indicator: TA98, Metabolic Activation: RAT, LIVER, S-9, Method: STANDARD PLATE
  mutagenic call: active; positive
Test System: AMES SALMONELLA TYPHIMURIUM, Strain/Indicator: TA100, Metabolic Activation: RAT, LIVER, S-9, Method: STANDARD PLATE
  mutagenic call: inactive; negative

## O=C([O-])c1ccc2ccccc2c1.[Mn+2].[O-]C(O)c1ccc2ccccc2c1
Test System: AMES SALMONELLA TYPHIMURIUM, Strain/Indicator: TA98, Metabolic Activation: HAMSTER, LIVER, S-9, AROCLOR 1254 (10%), Method: STANDARD PLATE
  mutagenic call: inactive; negative
[1]
  mutagenic call: inactive; negative
Test System: AMES SALMONELLA TYPHIMURIUM, Strain/Indicator: TA98, Metabolic Activation: RAT, LIVER, S-9, AROCLOR 1254 (10%), Method: STANDARD PLATE
  mutagenic call: inactive; negative
Test System: AMES SALMONELLA TYPHIMURIUM, Strain/Indicator: TA100, Metabolic Activation: HAMSTER, LIVER, S-9, AROCLOR 1254 (10%), Method: STANDARD PLATE
  mutagenic call: inactive; negative
[2]
  mutagenic call: inactive; negative
Test System: AMES SALMONELLA TYPHIMURIUM, Strain/Indicator: TA100, Metabolic Activation: RAT, LIVER, S-9, AROCLOR 1254 (10%), Method: STANDARD PLATE
  mutagenic call: inactive; negative
Test System: AMES SALMONELLA TYPHIMURIUM, Strain/Indicator: TA1535, Metabolic Activation: HAMSTER, LIVER, S-9, AROCLOR 1254 (10%), Method: STANDARD PLATE
  mutagenic call: inactive; negative
[3]
  mutagenic call: inactive; negative
Test System: AMES SALMONELLA TYPHIMURIUM, Strain/Indicator: TA1535, Metabolic Activation: RAT, LIVER, S-9, AROCLOR 1254 (10%), Method: STANDARD PLATE
  mutagenic call: inactive; negative
Test System: AMES SALMONELLA TYPHIMURIUM, Strain/Indicator: TA1537, Metabolic Activation: HAMSTER, LIVER, S-9, AROCLOR 1254 (10%), Method: STANDARD PLATE
  mutagenic call: inactive; negative
[4]
  mutagenic call: inactive; negative
Test System: AMES SALMONELLA TYPHIMURIUM, Strain/Indicator: TA1537, Metabolic Activation: RAT, LIVER, S-9, AROCLOR 1254 (10%), Method: STANDARD PLATE
  mutagenic call: inactive; negative
Test System: AMES SALMONELLA TYPHIMURIUM, Strain/Indicator: TA1538, Metabolic Activation: HAMSTER, LIVER, S-9, AROCLOR 1254 (10%), Method: STANDARD PLATE
  mutagenic call: inactive; negative
[5]
  mutagenic call: inactive; negative
Test System: AMES SALMONELLA TYPHIMURIUM, Strain/Indicator: TA1538, Metabolic Activation: RAT, LIVER, S-9, AROCLOR 1254 (10%), Method: STANDARD PLATE
  mutagenic call: inactive; negative
